For series [1] the following is noted: intravenous infusion, subjects having Parkinson's disease; cited from earlier work.
The nature of series [2]: Plasma apomorphine concentration in Parkinson's patients, minimum effective concentration. The class given is in vivo, human. On the procedure:
A range of doses was used. Over half of the patients needed only the lower two doses (Films J and K), and 80% used Film I, J, or K (FIG. 8; “apomorphine dose” in this Figure indicates the weight of apomorphine hydrochloride in the administered pharmaceutical unit dosage form). […] Eight patients had pharmacokinetic analyses; six of these eight patients have achieved “on” state. Mean plasma apomorphine concentration upon turning on was 2.64 ng/mL for the six patients. […] Responders had large, clinically meaningful UPDRS Part III changes (motor improvement) at all time-points while the non-responders had little motor improvement but not enough to convert from OFF to ON (FIG. 9B).

Where two headings read alike, the source gives them in different places.

Take `CN1CCc2cccc3c2[C@H]1Cc1ccc(O)c(O)c1-3` [apomorphine]: the results for the minimum effective concentration in series [1] and in series [2] (administered to oral mucosa) were 4.7 ng/mL and “about 2.64 ng/mL”, respectively. In addition, the “Mean plasma apomorphine concentration upon turning on” value in series [2] (six patients who achieved 'on' state, film to oral mucosa) came to 2.64 ng/mL. Further, in series [2] (two non-responders, all doses, each time point), the “average plasma apomorphine concentration” value is < 2.64 ng/mL.

The record behind these values is patent US10449146B2, “Methods of treating parkinson's disease by administration of apomorphine to an oral mucosa” (Sunovion Pharmaceuticals Inc., priority 2015, dated 2019).
